Patent publication US20240158446A1, “CYCLIC COMPOUND HAVING SELECTIVE INHIBITORY ACTION ON KRAS OVER HRAS AND NRAS” (CHUGAI SEIYAKU KABUSHIKI KAISHA, priority 2021, published 2024)
Where a SMILES comes first, the peptide text is derived from it. Bridges are numbered along the chain shown (N, C = ends). [ ]: non-standard residue; d: D form. The star is where a group is joined. hPhe(3-Cl-4-CF3) = N[C@@H](CCc1ccc(C(F)(F)F)c(Cl)c1)C(=O)O; NPrPhe(4-CF3) = CCCN[C@@H](Cc1ccc(C(F)(F)F)cc1)C(=O)O; NMeGly(cPent) = CN[C@H](C(=O)O)C1CCCC1; NMeI = CC[C@H](C)[C@H](NC)C(=O)O; NMeD = CN[C@@H](CC(=O)O)C(=O)O; Ac4c(3-oxa) = NC1(C(=O)O)COC1; NMeL = CN[C@@H](CC(C)C)C(=O)O; NMeAbu = CC[C@H](NC)C(=O)O; NMeS = CN[C@@H](CO)C(=O)O; Morpholide = C1CN(*)CCO1; NMeA = CN[C@@H](C)C(=O)O; Ac5c = NC1(C(=O)O)CCCC1; Ac4c = NC1(C(=O)O)CCC1; Sar = CNCC(=O)O

Key:
[1] = molecular target: GDP-bound KRAS wild-type protein (Homo sapiens, UniProt P01116); experiment: Binding to KRAS by surface plasmon resonance (SPR), Single Cycle Kinetics; details: SPR, Single Cycle Kinetics, GDP-bound KRAS wild-type protein; read-out: KRAS KD
GDP-bound KRAS wild-type protein, sequence (P01116 whole entry): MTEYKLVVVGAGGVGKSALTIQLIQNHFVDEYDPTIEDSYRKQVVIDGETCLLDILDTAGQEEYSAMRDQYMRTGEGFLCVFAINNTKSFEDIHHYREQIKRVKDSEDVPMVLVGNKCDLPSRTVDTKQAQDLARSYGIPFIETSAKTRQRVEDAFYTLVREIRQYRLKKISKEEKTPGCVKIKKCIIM

[2] = molecular target: GDP-bound NRAS wild-type protein (Homo sapiens, UniProt P01111); experiment: Binding to NRAS by surface plasmon resonance (SPR), Single Cycle Kinetics; details: ratio of KD for GDP-bound NRAS wild-type protein to KD for KRAS, SPR
GDP-bound NRAS wild-type protein, sequence (P01111 whole entry): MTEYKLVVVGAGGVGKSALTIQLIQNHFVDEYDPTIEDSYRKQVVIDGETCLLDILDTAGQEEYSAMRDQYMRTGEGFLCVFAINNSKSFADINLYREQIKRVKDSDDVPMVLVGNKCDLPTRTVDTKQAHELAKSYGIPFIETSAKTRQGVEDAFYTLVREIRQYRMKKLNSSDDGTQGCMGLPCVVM

[3] = molecular target: GDP-bound HRAS wild-type protein (Homo sapiens, UniProt P01112); experiment: Binding to HRAS by surface plasmon resonance (SPR), Single Cycle Kinetics; details: ratio of KD for GDP-bound HRAS wild-type protein to KD for KRAS, SPR
GDP-bound HRAS wild-type protein, sequence (P01112 whole entry): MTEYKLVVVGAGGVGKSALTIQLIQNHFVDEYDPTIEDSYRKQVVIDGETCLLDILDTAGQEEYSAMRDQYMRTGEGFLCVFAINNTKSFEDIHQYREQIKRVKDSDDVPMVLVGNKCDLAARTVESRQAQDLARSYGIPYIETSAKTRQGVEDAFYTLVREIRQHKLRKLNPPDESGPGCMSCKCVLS

[4] = system: human lung cancer strain NCI-H441; experiment: cells; details: NCI-H441, 96 h, read-out: NCI-H441 IC50 (nM), NCI-H441 cell proliferation, 4 days, CellTiter-Glo;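 further: cell proliferation inhibition after four days measured by CellTiter-Glo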

| SMILES | Kd [1] [nM] | IC50 [4] [nM] | NRAS/KRAS (KD ratio) [2] | HRAS/KRAS (KD ratio) [3] |
| --- | --- | --- | --- | --- |
| CC[C@H](C)[C@@H]1NC(=O)[C@H](CC(C)C)N(C)C(=O)C[C@@H](C(=O)N(C)CC)N(C)C(=O)[C@H](C2CCCC2)N(C)C(=O)C2(CC(C)(C)C2)NC(=O)[C@@H]2C[C@@H](C)CN2C(=O)[C@H](CCc2ccc(C(F)(F)F)c(OC)c2)NC(=O)CN(C)C(=O)[C@H](Cc2ccc(C)cc2)N2CC/C=C\C[C@@H](C2=O)N(C)C(=O)CN(C)C1=O [PP1909] | 0.34 | 15.3 | A (a compound having 10 or more and less than 20 is denoted as A) | B (a compound having 3 or more and less than 10 is denoted as B) |
| CC[C@H](C)[C@@H]1NC(=O)[C@H](CC(F)F)N(C)C(=O)C[C@@H](C(=O)N(C)CC)N(C)C(=O)[C@H](C2CCCC2)N(C)C(=O)C2(CC(C)(C)C2)NC(=O)[C@@H]2C[C@H](C)CN2C(=O)[C@H](CCc2ccc(C(F)(F)F)c(Cl)c2)NC(=O)CN(C)C(=O)[C@H](Cc2ccc(C)cc2)N2CC/C=C\C[C@@H](C2=O)N(C)C(=O)CN(C)C1=O [PP1911] | 0.21 | 11.7 | A (a compound having 10 or more and less than 20 is denoted as A) | A (a compound having 10 or more and less than 20 is denoted as A) |
| CCO[C@@H]1C[C@H]2C(=O)NC3(CC(C)(C)C3)C(=O)N(C)[C@@H](C3CCCC3)C(=O)N(C)[C@H](C(=O)N(C)C)CC(=O)N3CCCCC[C@H]3C(=O)N[C@@H]([C@@H](C)CC)C(=O)N(C)CC(=O)N(C)[C@H]3C/C=C\CCN(C3=O)[C@@H](Cc3ccc(C(F)(F)F)cc3)C(=O)N(C)CC(=O)N[C@@H](CCc3cc(F)c(C(F)(F)F)c(F)c3)C(=O)N2C1 [PP1915] | 0.31 | 18.5 | A (a compound having 10 or more and less than 20 is denoted as A) | A (a compound having 10 or more and less than 20 is denoted as A) |
| CCCN1C(=O)CN(C)C(=O)CN(C)C(=O)[C@H]([C@@H](C)CC)NC(=O)[C@H](CC(C)C)N(C)C(=O)C[C@@H](C(=O)N2CCOCC2)N(C)C(=O)[C@H](C2CCCC2)N(C)C(=O)C2(CCC2)NC(=O)[C@H](C)N(C)C(=O)[C@H](CCc2ccc(C(F)(F)F)c(Cl)c2)NC(=O)CN(C)C(=O)[C@@H]1Cc1ccc(C(F)(F)F)cc1 [PP1916] ([NMeL]I[Sar][Sar][NPrPhe(4-CF3)][Sar][hPhe(3-Cl-4-CF3)][NMeA][Ac4c][NMeGly(cPent)][NMeD]-Morpholide; lactam N-11) | 0.49 | 16.8 | B (a compound having 3 or more and less than 10 is denoted as B) | C (A compound having a KD ratio of 0.1 or more and less than 3 is denoted as C) |
| CCCN1C(=O)CN(C)C(=O)CN(C)C(=O)[C@H]([C@@H](C)CC)NC(=O)[C@H](CC(C)C)N(C)C(=O)C[C@@H](C(=O)N2CCOCC2)N(C)C(=O)[C@H](C2CCCC2)N(C)C(=O)C2(CCC2)NC(=O)[C@H](CC)N(C)C(=O)[C@H](CCc2ccc(C(F)(F)F)c(Cl)c2)NC(=O)CN(C)C(=O)[C@@H]1Cc1ccc(C(F)(F)F)cc1 [PP1918] ([NMeL]I[Sar][Sar][NPrPhe(4-CF3)][Sar][hPhe(3-Cl-4-CF3)][NMeAbu][Ac4c][NMeGly(cPent)][NMeD]-Morpholide; lactam N-11) | 0.19 | 32.8 | B (a compound having 3 or more and less than 10 is denoted as B) | C (A compound having a KD ratio of 0.1 or more and less than 3 is denoted as C) |
| CCCN1C(=O)CN(C)C(=O)CN(C)C(=O)[C@H]([C@@H](C)CC)NC(=O)[C@H](CC(C)C)N(C)C(=O)C[C@@H](C(=O)N2CCOCC2)N(C)C(=O)[C@H](C2CCCC2)N(C)C(=O)C2(CCCC2)NC(=O)[C@H](COC)N(C)C(=O)[C@H](CCc2ccc(C(F)(F)F)c(Cl)c2)NC(=O)CN(C)C(=O)[C@@H]1Cc1ccc(C(F)(F)F)cc1 [PP1920] ([NMeL]I[Sar][Sar][NPrPhe(4-CF3)][Sar][hPhe(3-Cl-4-CF3)][NMeS](Me)[Ac5c][NMeGly(cPent)][NMeD]-Morpholide; lactam N-11) | 0.31 | 32.4 | B (a compound having 3 or more and less than 10 is denoted as B) | C (A compound having a KD ratio of 0.1 or more and less than 3 is denoted as C) |
| CCCN1C(=O)CN(C)C(=O)CN(C)C(=O)[C@H]([C@@H](C)CC)NC(=O)[C@H](CC(C)C)N(C)C(=O)C[C@@H](C(=O)N2CCOCC2)N(C)C(=O)[C@H](C2CCCC2)N(C)C(=O)C2(COC2)NC(=O)[C@@H]2CCCN2C(=O)[C@H](CCc2ccc(C(F)(F)F)c(Cl)c2)NC(=O)CN(C)C(=O)[C@@H]1Cc1ccc(C(F)(F)F)cc1 [PP1922] ([NMeL]I[Sar][Sar][NPrPhe(4-CF3)][Sar][hPhe(3-Cl-4-CF3)]P[Ac4c(3-oxa)][NMeGly(cPent)][NMeD]-Morpholide; lactam N-11) | 0.23 | 44.1 | B (a compound having 3 or more and less than 10 is denoted as B) | C (A compound having a KD ratio of 0.1 or more and less than 3 is denoted as C) |
| CCC[C@H]1C(=O)N[C@@H]([C@@H](C)CC)C(=O)N2CC[C@H]2C(=O)N(C)[C@H]2C/C=C\CCN(C2=O)[C@@H](Cc2ccc(C(F)(F)F)cc2)C(=O)N(C)CC(=O)N[C@@H](CCc2cc(F)c(C(F)(F)F)c(F)c2)C(=O)N2C[C@H](OCC)C[C@H]2C(=O)NC2(CC(C)(C)C2)C(=O)N(C)[C@@H](C2CCCC2)C(=O)N(C)[C@H](C(=O)N(C)C)CC(=O)N1C [PP1925] | 0.23 | 9.7 | A (a compound having 10 or more and less than 20 is denoted as A) | A (a compound having 10 or more and less than 20 is denoted as A) |
| CCCN1C(=O)CN(C)C(=O)CN(C)C(=O)[C@H]([C@@H](C)CC)NC(=O)[C@H](CC(C)C)N(C)C(=O)C[C@@H](C(=O)N2CCOCC2)N(C)C(=O)[C@H]([C@@H](C)CC)N(C)C(=O)C2(CCCC2)NC(=O)[C@@H]2CCCN2C(=O)[C@H](CCc2ccc(C(F)(F)F)c(Cl)c2)NC(=O)CN(C)C(=O)[C@@H]1Cc1ccc(C(F)(F)F)cc1 [PP1926] ([NMeL]I[Sar][Sar][NPrPhe(4-CF3)][Sar][hPhe(3-Cl-4-CF3)]P[Ac5c][NMeI][NMeD]-Morpholide; lactam N-11) | 0.36 | 17.4 | B (a compound having 3 or more and less than 10 is denoted as B) | B (a compound having 3 or more and less than 10 is denoted as B) |

Further lines, with some results ahead:

| Kd [1] [nM] | IC50 [4] [nM] | SMILES | NRAS/KRAS (KD ratio) [2] | HRAS/KRAS (KD ratio) [3] |
| --- | --- | --- | --- | --- |
| 0.37 | 44 | CCO[C@@H]1C[C@H]2C(=O)NC3(CC(C)(C)C3)C(=O)N(CC)[C@@H](C3CCCC3)C(=O)N(C)[C@H](C(=O)N(C)C)CC(=O)N(C)[C@@H](CC)C(=O)N[C@@H]([C@@H](C)CC)C(=O)N(C)CC(=O)N(C)[C@H]3C/C=C\CCN(C3=O)[C@@H](Cc3ccc(C(F)(F)F)cc3)C(=O)N(C)CC(=O)N[C@@H](CCc3cc(F)c(C(F)(F)F)c(F)c3)C(=O)N2C1 [PP1913] | A (a compound having 10 or more and less than 20 is denoted as A) | A (a compound having 10 or more and less than 20 is denoted as A) |
| 0.29 | 22.5 | CCCN(C)C(=O)[C@@H]1CC(=O)N(C)[C@@H](CC(C)C)C(=O)N[C@@H]([C@@H](C)OC)C(=O)N(C)CC(=O)N(C)[C@H]2C/C=C\CCN(C2=O)[C@@H](Cc2ccc(C(F)(F)F)cc2)C(=O)N(C)CC(=O)N[C@@H](CCc2cc(F)c(C(F)(F)F)c(F)c2)C(=O)N2C[C@H](OCC)C[C@H]2C(=O)NC2(CC(C)(C)C2)C(=O)N(C)[C@@H](C2CCCC2)C(=O)N1C [PP1917] | A (a compound having 10 or more and less than 20 is denoted as A) | A (a compound having 10 or more and less than 20 is denoted as A) |
| 0.23 | 6.3 | CCO[C@@H]1C[C@H]2C(=O)NC3(CC(C)(C)C3)C(=O)N(C)[C@@H](C3CCCC3)C(=O)N(C)[C@H](C(=O)N(C)CC)CC(=O)N(C)[C@@H](CC(C)C)C(=O)N[C@@H]([C@@H](C)OCC)C(=O)N(C)CC(=O)N(C)[C@H]3C/C=C\CCN(C3=O)[C@@H](Cc3ccc(C(F)(F)F)cc3)C(=O)N(C)CC(=O)N[C@@H](CCc3cc(F)c(C(F)(F)F)c(F)c3)C(=O)N2C1 [PP1919] | A (a compound having 10 or more and less than 20 is denoted as A) | A (a compound having 10 or more and less than 20 is denoted as A) |
| 0.055 | 7.8 | CCCO[C@H](C)[C@@H]1NC(=O)[C@H](CC(C)C)N(C)C(=O)C[C@@H](C(=O)N(C)C)N(C)C(=O)[C@H](C2CCCC2)N(C)C(=O)C2(CC(C)(C)C2)NC(=O)[C@@H]2C[C@@H](OCC)CN2C(=O)[C@H](CCc2cc(F)c(C(F)(F)F)c(F)c2)NC(=O)CN(C)C(=O)[C@H](Cc2ccc(C(F)(F)F)cc2)N2CC/C=C\C[C@@H](C2=O)N(C)C(=O)CN(C)C1=O [PP1921] | A (a compound having 10 or more and less than 20 is denoted as A) | A (a compound having 10 or more and less than 20 is denoted as A) |
| 3.4 | 68 | CCCN(C)C(=O)[C@@H]1CC(=O)N(C)[C@@H](CC(C)C)C(=O)N[C@@H](C2CCOCC2)C(=O)N(C)CC(=O)N(C)[C@H]2C/C=C\CCN(C2=O)[C@@H](Cc2ccc(C(F)(F)F)cc2)C(=O)N(C)CC(=O)N[C@@H](CCc2cc(F)c(C(F)(F)F)c(F)c2)C(=O)N2C[C@H](OCC)C[C@H]2C(=O)NC2(CC(C)(C)C2)C(=O)N(C)[C@@H](C2CCCC2)C(=O)N1C [PP1923] | A (a compound having 10 or more and less than 20 is denoted as A) | A (a compound having 10 or more and less than 20 is denoted as A) |
